# Experiment: RP, Waters ACQUITY UPLC BEH C18, 50 × 2.1 mm, 1.7 µm, 40 °C, 0.6 mL/min, estimated dead time 0.18 min; A: water + 0.1% formic acid, pH 3; B: acetonitrile + 0.1% formic acid, pH 3; gradient (min/%B) 0/5 7/100 8/100
# Details: stereoisomer not certain
row,LC retention time [min],SMILES
1,4.77,COc1c(CC=C(C)C)c(O)c(CC=C(C)C)c(O)c1C(=O)c1ccc(O)cc1
2,0.266,C[C@@H]1O[C@@H](Oc2c(-c3ccc(O)c(O)c3)oc3cc(O)cc(O)c3c2=O)[C@H](O)[C@H](O)[C@H]1O
3,3.4,CC1(C)CCC[C@]2(CO)C1CC[C@@]13C[C@@H](CCC12)[C@@](O)(COC(=O)/C=C/c1ccc(O)c(O)c1)C3 (stereo partly drawn)
4,1.83,COc1ccc2c(c1OC)C(=O)OC2C1c2c(cc3c(c2OC)OCO3)CCN1C (stereo not drawn)
5,1.37,COc1cc2c(cc1OC)Oc1c(O)ccc3c1C(C2)N(C)CC3 (stereo not drawn)
6,5.69,COc1c(O)c(C(=O)C2CC=C(CCC=C(C)C)CC2c2ccccc2)c(OC)c(OC)c1OC (stereo not drawn)
7,4.97,COc1cc(/C=C/C(=O)OC2CC3(C)CCC2C3(C)C)ccc1O (stereo not drawn)
8,5,CCC(C)C(=O)C1=C(O)C2(CC=C(C)C)CC(CCC(C)(C)O)C(C)(C)C(C(CC(=O)O)c3ccccc3)=C2OC1=O (stereo not drawn)
9,3.16,CC1(C)CCC[C@]2(COC(=O)/C=C/c3ccc(O)c(O)c3)C1CC[C@@]13C[C@@H](CCC12)[C@@](O)(CO)C3 (stereo partly drawn)
10,5.54,CC1(C)CCC2(C(=O)O)CC=C3C(C)(CCC4C3(C)CCC3C(C)(C)C(OC(=O)c5ccc(O)cc5)C(OC(=O)c5ccc(O)cc5)CC43C)C2C1 (stereo not drawn)
11,2.74,CC(=O)OC(C)(C)/C=C/C(=O)[C@](C)(O)[C@H]1[C@H](O)C[C@@]2(C)C3CC=C4C(C[C@H](OC5OC(CO)C(O)C(O)C5O)C(=O)C4(C)C)[C@]3(C)C(=O)C[C@]12C (stereo partly drawn)
12,6.07,CC(C)=CCCC(C)=CCC1=Cc2c(O)c3c(c(CC=C(C)C)c2OC1O)OC12C(=CC4CC1C(C)(C)OC2(CC=C(C)C(=O)O)C4=O)C3=O (stereo not drawn)
13,2.48,COc1c(O)ccc2c1C(OC)N(C)c1c-2ccc2cc3c(cc12)OCO3 (stereo not drawn)
14,5.56,C=C(C(=O)C(O)C(C)C1C(OC(C)=O)CC2(C)C3CCC4C(C)C(=O)C=CC45CC35CCC12C)C(C)C (stereo not drawn)
15,1.85,C=C1C(=O)C23C(O)CC4C(C)(C)CCCC4(CO)C2C(O)CC1C3O (stereo not drawn)
16,1.29,COC(=O)C1=COC(OC2OC(CO)C(O)C(O)C2O)C2C(O)CN3CCc4c([nH]c5ccccc45)[C@@H]3CC12 (stereo partly drawn)
17,0.258,C[C@@H]1O[C@H](O[C@@H]2[C@@H](O)[C@H](OCCc3ccc(O)c(O)c3)O[C@H](CO)[C@H]2OC(=O)/C=C/c2ccc(O)c(O)c2)[C@H](O)[C@H](O)[C@H]1O
18,1.32,CC[C@H]1NC2C[C@@]3(C(=O)N(OC)c4cc(OC)ccc43)C3OCC2C1[C@@H]3O (stereo partly drawn)
19,4.03,CC(C)=CC1CC(C2CCC3(C)C4=CCC5C(C)(C)C(=O)CCC5(C)C4CC(C=O)=C23)C(O)O1 (stereo not drawn)
20,4.71,C=C1COC(=O)C12C[C@@]1(C)C([C@@H](OC(=O)/C=C/SC)CC[C@@H]1C)[C@H]2OC(=O)/C(C)=C\C (stereo partly drawn)
21,4.38,CC(C)=CC(O)C[C@@H](C)[C@H]1CC[C@@]2(C)C3C(=O)C=C4C(CCC(O)C4(C)C)[C@]3(C)CC[C@]12C (stereo partly drawn)
22,4.16,C/C=C(/C)C(=O)OC1CCC2CC3(O)OC(=O)C(C)=C3CC2(C)C1C (stereo not drawn)
23,3.15,O=C(/C=C/c1ccc(O)cc1)OC[C@H]1O[C@@H](Oc2cc(O)c3c(=O)cc(-c4ccc(O)cc4)oc3c2)[C@H](OC(=O)/C=C/c2ccc(O)cc2)[C@@H](O)[C@@H]1O
24,1.14,COC1=CC(=O)C2(c3cc(=O)c4c(O)cc(O)cc4o3)C(CC=C(C)C2C[C@H]2[C@@H](C)[C@@H](O)C[C@H]3C(C)(C)C[C@H](O)C[C@]23C)C1=O (stereo partly drawn)

# Further lines, the molecule ahead of its results:
row,SMILES,LC retention time [min]
1,CC1CC2CCCC3N4C(=O)CCCC4CC(C1)N23 (stereo not drawn),0.978
2,CC1=CC(C2OC3CCCN4C(C5CC(C)C(=O)O5)CCC4C3C2C)OC1=O (stereo not drawn),1.27
3,Cc1ccc2c(c1)C1(C(C)C)CCC2(C)OO1 (stereo not drawn),4.34
4,CCC1CN(C)CC2Cc3c([nH]c4ccccc34)C(=O)CC12 (stereo not drawn),1.71
5,CC(C)(O)/C=C/C(=O)[C@](C)(O)[C@H]1[C@H](O)C[C@@]2(C)C3CC=C4C(C=C(O)C(=O)C4(C)C)[C@]3(C)C(=O)C[C@]12C (stereo partly drawn),3
6,C=C1CCC(C(C)C)=CC2C1CCC2(C)O (stereo not drawn),3.02
7,CC[C@]12C=CCN3CC[C@]4(C(=C(C(=O)OC)C1)Nc1ccccc14)C32 (stereo partly drawn),2.17
8,CCCC(CC(=O)O)C1=C2OC(=O)C(C(=O)C(C)CC)=C(O)C2(CC=C(C)C)CC(CC=C(C)C)C1(C)C (stereo not drawn),6.55
9,CC[C@H]1C[C@@H]2CN3CCc4c([nH]c5ccccc45)[C@](C(=O)OC)(C2)[C@H]13,2.05
10,CC(C)C1CCC2(C)C3CCC45CCCC4C2(CCC(=O)C2(C)COC4(C)CCC2O4)C1N5C3 (stereo not drawn),2.86
11,C=C1C2CCC3C4(C)CCCC(C)(C(=O)O)C4CCC3(C2)C1O (stereo not drawn),3.64
12,"COc1cc2ccc(=O)oc2cc1OC [6,7-dimethoxy-2H-chromen-2-one]",1.87
13,C/C=C1/C2C=C(C)CC1(N)c1ccc(=O)[nH]c1C2 (stereo not drawn),0.913
14,CN1CCc2ccc(O)c3c2C1Cc1cc2c(cc1O3)OCO2 (stereo not drawn),1.4
15,"COc1cc(C=O)c([N+](=O)[O-])cc1OC [4,5-dimethoxy-2-nitrobenzaldehyde]",0.304
16,C=C[C@H]1CN2CCC3c4ccccc4NC3[C@H]2C[C@@H]1/C(=C\OC)C(=O)OC (stereo partly drawn),2.64
17,C[C@@H]1CC2(N=CCS2)[C@]2(O)OC3C[C@@]4(C=O)C(CCC5C4CC[C@]4(C)C(C6=CC(=O)OC6)CC(O)[C@]54O)CC3OC2O1 (stereo partly drawn),0.41
18,C/C(=C\CC/C=C(\C)CC/C=C(\C)CCC(O)C(C)(O)CO)CC/C=C(\C)CCC(O)C(C)(C)O (stereo not drawn),4.79
19,"COc1ccc(Cc2nccc3cc(OC)c(OC)cc23)cc1OC [1-[(3,4-dimethoxyphenyl)methyl]-6,7-dimethoxyisoquinoline]",1.79
20,CC(=O)OC(C)(C)/C=C/C(=O)[C@](C)(O)[C@H]1[C@H](O)C[C@@]2(C)C3CC=C4C(CC(=O)C(O)C4(C)C)[C@]3(C)C(=O)C[C@]12C (stereo partly drawn),2.88
21,C[C@@H]1O[C@@H](O[C@@H]2C(O[C@H]3CC[C@@]4(C)C(CC[C@]5(C)C4CC=C4C6CC(C)(C)CC[C@]6(C(=O)O)CC[C@]45C)[C@]3(C)CO)OC[C@@H](OC3O[C@H](CO)[C@@H](O)[C@H](O)[C@H]3O)[C@H]2O)[C@H](O)[C@H](O[C@@H]2OC[C@@H](O)[C@H](O)[C@H]2O)[C@H]1O (stereo partly drawn),2.21
22,C/C=C/C(CC1C(=O)C=CC1(O)CCCCCCCC(=O)O)OC(C)=O (stereo not drawn),2.88
23,C=CC12CN(C)C3C4COC(C[C@@H]41)[C@]1(C(=O)Nc4ccccc41)C32 (stereo partly drawn),1.01
24,"COc1ccc(OC)c([N+](=O)[O-])c1/C=C/[N+](=O)[O-] [1,4-dimethoxy-2-nitro-3-[(1E)-2-nitroethenyl]benzene]",0.72
25,CC12CCC(C(OC(=O)/C=C/c3ccc(O)cc3)C1)C2(C)C (stereo not drawn),4.89
26,COc1cc2c(cc1OC)-c1c3c(cc4c1C(C2)N(C)CC4)OCO3 (stereo not drawn),1.84
27,CC(C)(O)/C=C/C(=O)[C@](C)(O)[C@H]1[C@H](O)C[C@@]2(C)C3CC=C4C(CC(=O)C(O)C4(C)C)[C@]3(C)C(=O)C[C@]12C (stereo partly drawn),2.9
28,C=C(C)[C@@]12OC3(/C=C/C=C\CCCCC)O[C@@H]1C1[C@@H]4O[C@]4(CO)[C@@H](O)[C@]4(O)C(=O)C(C)=CC4[C@@]1(O3)[C@H](C)[C@H]2OC(=O)c1ccccc1 (stereo partly drawn),5.88
29,CN1CCc2cc3c(c4c2C1CC41C=CC(=O)C=C1)OCO3 (stereo not drawn),1.08

# Source: the RepoRT retention time repository
